Experimental data as given in patent US9499493B2, “2,4-pyrimidinediamine compounds and their uses” (Rigel Pharmaceuticals, Inc., priority 2002, dated 2016).

How the values were obtained:
[1] = test system: cultured human mast cells (CHMC); assay: CHMC low cell density ionomycin activation: tryptase assay; type: cell-based
[2] = test system: cultured human mast cells (CHMC); assay: CHMC low cell density IgE activation: tryptase assay; type: cell-based; conditions: anti-IgE
How it was run: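 Low-density CHMC assay: donor-adjusted 1000-1500 cells/well, MT buffer, 1 hr 37° C preincubation; anti-IgE stimulus 30 min 37° C versus MT-only controls; supernatant tryptase by substrate, 30 min RT.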

| SMILES | IC50 [1] | IC50 [2] |
| --- | --- | --- |
| CCOC(=O)COc1cccc(Nc2nc(Nc3cccc(C(C)(C)C)c3)ncc2F)c1 [R940266, N2-(3-tert-Butylphenyl)-N4-(3-ethoxycarbonylmethyleneoxyphenyl)-5-fluoro-4-pyrimidinediamine] | > 10 µM | > 10 µM |
| CNC(=O)COc1cccc(Nc2nc(Nc3cccc(C(C)(C)C)c3)ncc2F)c1 [R940267, N2-(3-tert-Butylphenyl)-N4-[3-(N-methylamino)carbonylmethyleneoxyphenyl]-5-fluoro-2,4-pyrimidinediamine] | > 10 µM | 3.15 µM |
| CCOC(=O)COc1cccc(Nc2ncc(F)c(Nc3cccc(C(C)(C)C)c3)n2)c1 [R940270, N4-(3-tert-Butylphenyl)-N2-(3-ethoxycarbonylmethyleneoxyphenyl)-5-fluoro-2,4-pyrimidinediamine] | 8.74 µM | 2.14 µM |
| CC(C)(C)c1cccc(Nc2nc(Nc3cccc(OCC(=O)O)c3)ncc2F)c1 [R940280, N4-(3-tert-Butylphenyl)-N2-[3-carboxymethyleneoxyphenyl]-5-fluoro-2,4-pyrimidinediamine] | > 10 µM | 7 µM |
| CC(C)(C)c1cccc(Nc2nc(Nc3cccc(OCCO)c3)ncc2F)c1 [R940282, N4-(3-tert-Butylphenyl)-5-fluoro-N2-[3-(2-hydroxyethyleneoxy)phenyl]-2,4-pyrimidinediamine] | 3.02 µM | 0.401 µM |
| CCOC(=O)COc1cccc(Nc2ncc(F)c(Nc3ccc4c(c3)C(=O)OC4)n2)c1 [R940285, N2-[3-Ethoxycarbonylmethyleneoxyphenyl]-N4-(3,3-dihydroisobenzofuranyl-1-one-6-yl)-5-fluoro-2,4-pyrimidinediamine] | > 10 µM | 3.5 µM |
| CC(C)c1cccc(Nc2nc(Nc3ccc4oc(CO)cc4c3)ncc2F)c1 [R940286, 5-Fluoro-N4-(3-isopropylphenyl)-N2-[(2-hydroxymethylene]benzofur-5-yl]-2,4-pyrimidinediamine] | 7.08 µM | 0.337 µM |
| CC(C)(C)c1cccc(Nc2nc(Nc3ccc4oc(CO)cc4c3)ncc2F)c1 [R940287, N4-(3-tert-Butylphenyl)-5-fluoro-N2-[(2-hydroxymethylene)benzofur-5-yl]-2,4-pyrimidinediamine] | 7.68 µM | 0.288 µM |
| CNC(=O)COc1cccc(Nc2ncc(F)c(Nc3cccc(C(C)C)c3)n2)c1 [R940288, 5-Fluoro-N4-(3-isopropylphenyl)-N2-[3-(N-methylamino)carbonylmethyleneoxyphenyl]-2,4-pyrimidinediamine] | > 10 µM | 0.208 µM |
| CC(C)c1cccc(Nc2nc(Nc3cccc(OCCO)c3)ncc2F)c1 [R940289, 5-Fluoro-N2-[3-(2-hydroxyethyleneoxy)phenyl]-N4-(3-isopropylphenyl)-2,4-pyrimidinediamine] | > 10 µM | 0.272 µM |
| OCCOc1cccc(Nc2ncc(F)c(Nc3ccc(CO)c(CO)c3)n2)c1 [R940292, N4-[3,4-Bis(hydroxymethyl)phenyl]-5-fluoro-N2-[3-(2-hydroxyethyleneoxy)phenyl]-2,4-pyrimidinediamine] | > 10 µM | 0.683 µM |
| O=C(COc1cccc(Nc2ncc(F)c(Nc3ccc4c(c3)C(=O)OC4)n2)c1)NCC(O)CO (stereo not drawn) [R940293, N4-(3,3-Dihydroisobenzofuran-1-one-6-yl)-N2-[3-(N-2,3-dihydroxypropylamino)carbonylmethyleneoxyphenyl]-5-fluoro-2,4-pyrimidinediamine] | > 10 µM | > 10 µM |
| COC(=O)c1cc2cc(Nc3ncc(F)c(Nc4ccc5c(c4)C(=O)OC5)n3)ccc2o1 [R940294, N4-(3,3-Dihydroisobenzofuranyl-1-one-6-yl)-5-fluoro-N2-(2-methoxycarbonylbenzofur-5-yl)-2,4-pyrimidinediamine] | > 10 µM | 1.37 µM |
| CC(C)(C)c1cccc(Nc2nc(Nc3cccc(OCC(=O)NCCO)c3)ncc2F)c1 [R940295, N4-(3-tert-Buthylpheny)-5-fluoro-N2-[3-(N-2-hydroxyethylamino)carbonylmethyleneoxyphenyl]-2,4-pyrimidinediamine] | 8.81 µM | 0.126 µM |
| CC(C)(C)c1cccc(Nc2nc(Nc3cccc(OCC(=O)NC(CO)CO)c3)ncc2F)c1 [R940296, N4-(3-tert-Butylpheny)-N2-[3-(N-1,3-dihydroxypropyl-2-amino)carbonylmethyleneoxyphenyl]-5-fluoro-2,4-pyrimidinediamine] | > 10 µM | 0.41 µM |
| CNC(=O)COc1cccc(Nc2ncc(F)c(Nc3cccc(C(N)=O)c3)n2)c1 [R940299, 5-Fluoro-N2-[3-(methylaminocarbonylmethyleneoxy)phenyl]-N4-(3-aminocarbonylphenyl)-2,4-pyrimidinediamine] | > 10 µM | 2.5 µM |
| CNC(=O)COc1cccc(Nc2ncc(F)c(Nc3ccc(OC)c(C(=O)OC)c3)n2)c1 [R940300, 5-Fluoro-N2-[3-(methylaminocarbonylmethyleneoxy)phenyl]-N4-(3-methyloxycarbonyl-4-methoxyphenyl)-2,4-pyrimidinediamine] | > 10 µM | 10 µM |
| CNC(=O)COc1cccc(Nc2ncc(F)c(Nc3ccc(OC)c(C(=O)NC)c3)n2)c1 [R940306, 5-Fluoro-N2-[3-(methylaminocarbonylmethyleneoxy)phenyl]-N4-(3-methylaminocarbonyl-4-methoxyphenyl)-2,4-pyrimidinediamine] | > 10 µM | 1.1 µM |
| CC(C)c1cccc(Nc2nc(Nc3cccc(OCC(=O)NC[C@@H](O)CO)c3)ncc2F)c1 [R940307, (R)—N2-[3-(dihydroxypropylaminocarbonylmethyleneoxy)-phenyl]-5-fluoro-N4-(3-isopropylphenyl)-2,4-pyrimidinediamine] | > 10 µM | 0.291 µM |
| CNC(=O)COc1cccc(Nc2ncc(F)c(Nc3cccc(CN)c3)n2)c1 [R940309, N4-(3-Aminomethylenephenyl)-5-fluoro-N2-[3-(methylaminocarbonylmethyleneoxy)phenyl]-2,4-pyrimidinediamine] | > 10 µM | 1.13 µM |
| CNCc1cccc(Nc2nc(Nc3cccc(OCC(=O)NC)c3)ncc2F)c1 [R940317, N4-(3-N-methylaminomethylenephenyl)-5-fluoro-N2-[3-(methylaminocarbonylmethyleneoxy)phenyl]-2,4-pyrimidinediamine] | > 10 µM | 0.913 µM |
| CNC(=O)COc1cccc(Nc2ncc(F)c(Nc3ccc4c(c3)NC(=O)C(C)(C)O4)n2)c1 [R940323, N4-[(2,2-Dimethyl-4H-benzo[1,4]oxazin-3-one)-6-yl]-5-fluoro-N2-[3-(methylaminocarbonylmethyleneoxy)phenyl]-2,4-pyrimidinediamine] | > 10 µM | 0.048 µM |
| Cn1ncc2cc(Nc3ncc(F)c(Nc4ccc5c(c4)NC(=O)C(C)(C)O5)n3)ccc21 [R940338, N4-[(2,2-Dimethyl-4H-benzo[1,4]oxazin-3-one)-6-yl]-5-fluoro-N2-(1-methylindazolin-5-yl)-2,4-pyrimidinediamine] | > 10 µM | 0.073 µM |
| O=C1Nc2cc(Nc3nc(Nc4cccc(O)c4)ncc3F)ccc2OC1(F)F [R940349, N4-[(2,2-Difluoro-4H-benzo[1,4]oxazin-3-one)-6-yl]-5-fluoro-N2-(3-hydroxyphenyl)-2,4-pyrimidinediamine] | 7.4 µM | 0.044 µM |
